Reference: US20230181514A1, “NEW TRIGLYCERIDE OBTAINED FROM A MACROCYBE TITANS EXTRACT, CLINICAL APPLICATIONS AND PRODUCTION METHOD” (BIO TECH STARE GLOBAL S.R.L., priority 2020, published 2023)
“Also recorded” adds a separate entry of the source.

Tests used:
[1] = test system: A549 (lung adenocarcinoma); experiment: Cytotoxicity test (Cell Titer, 5 days), tumor line; type: cell-based, human
Protocol: (§1) Extracts (aqueous, ethyl, acidic) were obtained from 9 macrofungi species collected by INBio in the Costa Rican rainforests. All of them were subjected to a cytotoxicity test with two human cell lines: A549 (lung adenocarcinoma) and NL20 (immortalized, non-tumor line, obtained from the pulmonary epithelium). Cells were plated in 96-well plates at densities of 2,000 (A549) or 10,000 (NL20) cells per well. Once the cells were stuck to the bottom, serial concentrations of each extract were added and incubated at 37° C. for 5 days under a humidified atmosphere (85% relative humidity) and containing 5% CO2. Eight repeats (wells) were studied for each concentration. At the end of the incubation process, 20 μl of Cell Titer (Promega) were added per well and left for 4 h to allow the formation of the colored formazan salts. Colorimetric quantification was performed with a plate reader (POLARstar Omega) using a wavelength of 490 nm, following already published protocols (Coderch C, Diaz de C M, Zapico J M, Pelaez R, Larrayoz I M, Ramos A, et al. In silico identification and in vivo characterization of small molecule therapeutic hypothermia mimetics. Bioorg Med Chem 2017; 25:6597-604). […]

[2] = test system: NL20 (immortalized, non-tumor line, pulmonary epithelium); experiment: Cytotoxicity test (Cell Titer, 5 days), non-tumor line; type: cell-based, human
Protocol: as §1

[3] = test system: actin cytoskeleton of A549 cells; experiment: Modulation of the actin cytoskeleton (Bodipy-falacidine staining, confocal), tumor cells; type: cell-based, human; conditions: 0.03 mg/ml, 24-hour treatment
Text: (§2) Many antitumor substances exert their effects by modulating the cytoskeleton of tumor cells, either acting on microtubules or on actin filaments (Zhang S, Menche D, Zahler S, Vollmer A M, Liebl J, Forster F. In vitro anti-cancer effects of the actin-binding natural compound rhizopodin. Pharmazie 2015; 70:610-5.). To check whether compound TG10 has a similar mechanism of action as other antitumor drugs, tumor cells (A549) and non-tumor cells (NL20) were subjected to a 24-hour treatment with 0.03 mg/ml TG10. At the end of this time, the cells were fixed with 10% formaldehyde for 10 min, permeabilized with 0.1% Triton X-100 for 10 min and exposed to 1: 200 Bodipy-falacidine and 1: 1000 DAPI (Molecular Probes) for 1 h. The images were obtained with a confocal laser microscope (TCS SP5, Leica).

[4] = test system: actin cytoskeleton of NL20 cells; experiment: Modulation of the actin cytoskeleton (Bodipy-falacidine staining, confocal), non-tumor cells; type: cell-based, human; conditions: 0.03 mg/ml, 24-hour treatment
Text: as §2

A549 xenograft tumors = experiment: Human lung cancer xenografts in immunosuppressed mice; type: in vivo, mice (NOD scid gamma)
Protocol: In this case, 20 male mice of the NOD scid gamma strain (NSG, Stock No. 005557, The Jackson Laboratory) were used. All of them were injected subcutaneously with 10 million A549 cells and left for 2 weeks until the tumors became measurable. Two groups of 10 mice each were randomized and marked as control group (diamonds) and TG10-treated group (squares). From this point, intratumor injections with 100 μl of PBS (control group) or 0.1 mg/ml of TG10 in PBS (treated group) were applied 3 times per week. Before each injection, tumor volumes were measured with a caliper. The mice were euthanized when the tumors reached a size incompatible with animal welfare.

2S-TG (C18:2, 9z, 12z; C16:0; C18:1, 9z) [TG9]
Antitumor activity against A549 (toxicity test of synthesized TGs) [1]: no effect on cells
Toxicity to normal cells (NL20) [2]: no effect on cells

CCCCC/C=C\C/C=C\CCCCCCCC(=O)OC[C@@H](COC(=O)CCCCCCC/C=C\CCCCCCCC)OC(=O)CCCCCCCCCCCCCCC [TG10, 2R-TG (C18:2, 9z, 12z; C16:0; C18:1, 9z)]
Antitumor activity against A549 (toxicity test of synthesized TGs) [1]: exhibited antitumor activity; also recorded: TG10 (active)
Toxicity to normal cells (NL20) [2]: not toxic to normal cells
Effect on actin fibers of A549 cells [3]: completely lost the polymerized actin fibers
Effect on actin fibers of NL20 cells [4]: maintained the filamentous structure of actin
Tumor growth versus control (in words) (A549 xenograft tumors; intratumor 0.1 mg/ml in PBS, 3 times per week, FIG. 5): continued to grow, but at a slower rate
Average tumor volume at the end of the experiment (A549 xenograft tumors; intratumor 100 μl of 0.1 mg/ml in PBS, 3 times per week from day 15, end day 48, control 2900 mm^3, p<0.05): 1600 mm^3
